Data reported in PubChem BioAssay (NCI).
Where “and” joins values, the source holds several entries; their conditions need not be identical. Equal values may be shown once.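 Results reflect a 48-hour exposure of cells in 96-well plates to compound at five concentrations. GI50: concentration for 50% inhibition of growth. The concentration for full growth arrest is given as TGI.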

How the values were obtained:
Assay in all cases: NCI-60 cell line screen, 48 h
[1] = tested on: HL-60(TB) leukemia
[2] = tested on: HCT-15 colon
[3] = tested on: MOLT-4 leukemia
[4] = tested on: EKVX NSCLC
[5] = tested on: SW-620 colon
[6] = tested on: NCI-H522 lung
[7] = tested on: A498 renal
[8] = tested on: RPMI-8226 leukemia
[9] = tested on: OVCAR-4 ovarian
[10] = tested on: SNB-75 CNS

Row | SMILES | GI50 [1] [µM] | TGI [1] [µM] | GI50 [2] [µM] | TGI [2] | GI50 [3] [µM] | TGI [3] | GI50 [4] [µM] | TGI [4] [µM] | GI50 [5] [µM] | TGI [5] | GI50 [6] [µM] | TGI [6] [µM] | GI50 [7] [µM] | TGI [7] | GI50 [8] [µM] | TGI [8] | GI50 [9] [µM] | TGI [9] | GI50 [10] [µM] | TGI [10]
1 | CCC1=C(C)/C(=C/c2[nH]c(C)c(C(=O)CCCCC(=O)OC)c2C)N=C1c1ccc[nH]1 | 2.53 | 9.28 | 15.4 | 66.8 µM | 0.995 | 6.92 µM | 12.2 | 32 | 2.18 | 4.82 µM | 2.36 | 6.37 | 23.9 | 59.5 µM | 3.37 | 13.9 µM | 3.47 | 17.3 µM | 12.2 | 27 µM
2 | CCn1c(=O)c(-c2ccn[nH]2)cc2c(C)nc(N)nc21 | 2.88 | > 100 | 2.08 | > 100 µM | 0.846 | 51 µM | 0.691 | 11.1 | 2.85 | > 100 µM | 1.5 | > 100 | 0.209 | 0.726 µM | 0.821 | 12.3 µM | 1.25 | 44 µM | 0.182 | 2.49 µM
3 | O=C1NC(=O)C(C(=O)C(=O)Nc2ccc(Br)cc2)C(=O)N1 | – | > 100 | – | > 100 µM | – | > 100 µM | – | > 100 | – | > 100 µM | – | > 100 | – | > 100 µM | – | > 100 µM | – | > 100 µM | – | > 100 µM
4 | COc1ccc2[nH]cc(CCNC(C)=O)c2c1 | – | > 100 | – | > 100 µM | – | > 100 µM | – | > 100 | – | 24.1 µM | – | > 100 | – | > 100 µM | – | 57.1 µM | – | > 100 µM | – | > 100 µM
5 | Cc1cc2c(cc1C)NC(=O)C(NC(=O)/C=C/c1ccccc1)C=N2 (stereo not drawn) | – | 43.5 | – | 40.4 µM | – | 57.7 µM | – | > 100 | – | 19.6 µM | – | 66 | – | > 100 µM | – | 75.9 µM | – | > 100 µM | – | > 100 µM
6 | CN1CCN(Cc2ccc(-c3cc4ncnc(Nc5ccc(OCc6cccc(F)c6)c(Cl)c5)c4s3)o2)CC1 | 4.62 | 9.34 | 2.92 | 6.39 µM | 4.47 | 9.39 µM | 2.95 | 8.78 | 4.66 | 8.64 µM | 4.75 | 9.46 | 3.5 | 7.57 µM | 3.91 | 9.52 µM | 3.69 | 7.5 µM | 4.29 | 9.11 µM
7 | CC(C)(C)[Si](C)(C)OCC1CCC(n2cnc3c(NC(=O)c4ccccc4)ncnc32)O1 (stereo not drawn) | – | 38.2 | – | 39.2 µM | – | 39.6 µM | – | 32.6 | – | 35 µM | – | 33.2 | – | 35.5 µM | – | 68.5 µM | – | 39.5 µM | – | 25.6 µM
8 | CCNC(=O)C[C@@H]1N=C(c2ccc(Cl)cc2)c2cc(OC)ccc2-n2c(C)nnc21 | 0.275 | 38.1 | 3.77 | > 100 µM | > 44.2 | > 100 µM | > 100 | > 100 | > 31 | > 100 µM | 2.08 | > 100 | 1.73 | > 69.3 µM | 0.367 | 5.74 µM | 5.93 | > 100 µM | 0.034 | 1.6 µM
9 | C[Si](C)(C)C#CCO[Si](C)(C)C | – | > 61 | – | > 100 µM | – | 58.4 µM | – | > 100 | – | > 100 µM | – | 29.9 | – | > 100 µM | – | > 79.8 µM | – | > 100 µM | – | > 100 µM
10 | CCC/C(=N\NC(=S)N1CCN(c2ccccn2)CC1)c1ccccn1 | – | 0.0458 | – | 1.55 µM and 1.75 µM | 0.00925 | > 10 µM and 1.05 µM | 0.0308 | – | 0.0117 | 1.36 µM and 1.21 µM | – | 0.307 | 0.194 | 3.93 µM and 1.36 µM | – | 0.024 µM and 0.0128 µM | 0.0398 | > 5.77 µM and 2.31 µM | – | 1.84 µM and 0.325 µM
11 | CCN1C(=O)C/C(=C\C(C)=O)Nc2ccccc21 | > 100 | > 100 | > 100 | > 100 µM | – | > 100 µM | – | > 100 | – | > 100 µM | – | > 100 | > 100 | > 100 µM | > 100 | > 100 µM | – | > 100 µM | – | > 67.1 µM
12 | O=C(Nc1ccc(Cl)c([N+](=O)[O-])c1)Nc1nc2ccccc2s1 | 4.48 | 24 | 3.32 | 15.5 µM | 3.76 | 17.1 µM | 2.59 | 10.9 | 3.38 | 14.5 µM | 2.44 | 7.33 | 2.14 | 8.01 µM | 2.93 | 10.5 µM | 4.21 | 26 µM | 3.97 | 15.4 µM
13 | COc1cc2oc(=O)cc(C)c2cc1[N+](=O)[O-] | – | 44 | – | 44.4 µM | – | 60.9 µM | – | > 100 | – | > 64.1 µM | – | 26.3 | – | > 84 µM | – | > 75.3 µM | – | 84.1 µM | – | > 100 µM
14 | O=C1/C(=C/c2cccc([N+](=O)[O-])c2)COc2ccc(O)c(O)c21 | 2.29 | 7.14 | 0.569 | 2.76 µM | 2.12 | 12.1 µM | 1.9 | 4.1 | 1.14 | 3.08 µM | 0.281 | 1.36 | 1.42 | 3.26 µM | 0.301 | 0.93 µM | 1.46 | 2.8 µM | 1.28 | 5.72 µM
15 | O=C(O)c1ccc(S(=O)(=O)c2ccccc2)c([N+](=O)[O-])c1 | – | > 100 | – | > 100 µM | – | > 100 µM | – | > 100 | – | > 100 µM | – | > 100 | – | > 100 µM | – | > 100 µM | – | > 100 µM | – | > 100 µM
16 | CC/C=C\C[C@H](O)C/C=C1/C(=O)C=C[C@@H]1C/C=C\CCCC(=O)NC(C)C | 2.67 | 9.1 | 2.02 | 4.92 µM | 2.72 | 11 µM | 4 | 15 | 3.16 | 10.8 µM | 1.59 | 3.24 | 5.16 | 16.3 µM | 2.73 | 7.02 µM | 4.27 | 18.4 µM | 8.2 | 21 µM
